Data set [1] relates to tissue noradrenaline and dopamine content. Put plainly: Tissue catecholamines in beagle dogs dosed b.i.d. for 4.5 days (0.05-5 mg/kg). It counts as in vivo. How it is done:
Male beagle dogs (10-16 kg, Marshall Farms USA Inc, North Rose, N.Y., USA) were used in the study. On the day of the study, dogs were weighed and randomly assigned to be orally dosed with either empty capsules (control) or the appropriate dose of nepicastat (0.05, 0.5, 1.5 or 5 mg.kg^−1; po, b.i.d.) […]. At six hours following the first dose on day-5, the dogs were euthanized with pentobarbital and the tissues (cerebral cortex, renal artery, left ventricle) were rapidly harvested. The tissues were subsequently processed and analysed for noradrenaline and dopamine as described above.
Male beagle dogs (10-16 kg, Marshall Farms USA Inc, North Rose, N.Y.) were used in the study. On the day of the study, dogs were randomly assigned to receive either placebo (empty capsule) or the appropriate dose of 2a. Each dog was dosed twice a day for 4.5 days. 6 h after the first dose on day 5, the dogs were euthanized with pentobarbital and the tissues (cerebral cortex. renal artery, left ventricle) harvested, weighed, placed in iced 0.4 M perchloric acid, frozen in liquid nitrogen and stored at −70° C. until analysis. Tissue NE and DA concentrations were assayed by HPLC using electrochemical detection.

For another data set, the system named is β-adrenergic receptor. Put plainly: Left ventricular [3H]CGP-12177 saturation binding after treatment. Also on record: species or system beagle dogs. The following applies: 10 mg/kg/day. How it is done:
Ventricles were homogenized in 50 mM Tris-HCl, 5 mM Na2EDTA buffer (pH 7.4 at 4° C.) using a Polytron P-10 tissue disrupter (setting 10, 2×15 second bursts). Homogenates were centrifuged at 500×g for 10 minutes and the supernatants stored on ice. The pellets were washed by resuspension and centrifugation at 500×g and the supernatants combined. The combined supernatants were centrifuged at 48,000×g for 20 minutes. The pellets were washed by resuspension and centrifugation once in homogenizing buffer and twice in 50 mM Tris-HCl, 0.5 mM EDTA buffer (pH 7.4 at 4° C.). Membranes were stored at −70° C. until required. Saturation experiments were conducted using [^3H] CGP-12177 in buffer containing 50 mM Tris-HCl, 0.5 mM EDTA (pH 7.4 at 32° C.). Non-specific binding was defined by 10 uM isoproterenol. Total bound, non-specific bound and total count tubes were set up for eight concentrations of [^3H] […] Aquasol scintillation fluid was added to each vial and radioactivity determined by liquid scintillation counting. Saturation binding isotherms were analyzed after first converting total ligand concentrations to free ligand concentrations (total−bound=free). […] Tissue catecholamine levels were analyzed by comparing nepicastat-treated groups with the placebo (control) treated groups. […] Additionally, a linear orthogonal contrast was calculated for all three doses within the context of a one-way ANOVA. […]

Data set [2] relates to spontaneous motor activity. Description: Spontaneous motor activity on day ten of chronic dosing. How it is done:
(§1) The effects of chronic dosing of nepicastat were examined. Between three and thirteen days prior to the first dosing day the rats were placed inside the startle apparatus and after a five minute acclimation period they were presented with a 118 dB noise burst on average once a minute (a variable inter-trial interval ranging between 30 and 90 seconds will be used) for 20 minutes. The startle responses were measured and a mean for the last twenty startle response was calculated for each rat.
The animals were tested in an enclosed room with a white noise generator running. Motor activity tests were conducted immediately after the body core temperature reading taken on dosing day ten (about 3 hours and 35 minutes after the morning daily dose of nepicastat, and SKF-102698, and 20 minutes prior to the daily administration of clonidine and d-amphetamine on dosing day ten). Motor activity tests were run for one hour. A diagnostic program was run on each of the motor activity chambers prior to each test session to assure that the photo beams and light sensors were operating properly. […] D-amphetamine was used as the positive control for this assay.
Each rats spontaneous locomotion was obtained by calculating the total number of photobeams that the subject broke during the testing session.
Spontaneous motor activity was measured for each animal every 15 min for 1 hour. Each time block (every 15 min) was analyzed separately. Kruskal-Wallis test (nonparametric technique) was performed to test for the difference between treatment groups. If the overall significant difference […], Bonferroni's adjustment for multiple comparisons is then made.

Another data set deals with pre-pulse inhibition. Description: Pre-pulse inhibition of acoustic startle on day ten of chronic dosing. Here is the method: as §1
Acoustic startle reactivity (a series of muscle contractions elicited by an intense burst of noise with a rapid onset), and pre-pulse inhibition (sensorimotor gating measured by analyzing any decrease in startle reactivity which occurs when a startling stimulus is immediately preceded by a non startling stimulus) were both measured in eight SR-Lab (San Diego Instruments, San Diego, Calif.) test stations. The rats were placed individually in a Plexiglas cylinder (10 cm diameter) which was housed in a ventilated sound-attenuating enclosure. Acoustic noise bursts (a broad band noise with a rise time and fall time of 1 msec) were presented via a speaker mounted 30 cm above the animal. Also, these speakers produced a 68 dB level of background noise throughout all test sessions. […] A decibel meter was used to calibrate the speakers in each of the eight test station to ±1% of the mean. Additionally, a SR-Lab calibrating instrument was used to calibrate each of the eight startle detection apparatuses to ±2% of the mean. Startle reactivity and pre-pulse inhibition tests were run concurrently immediately alter the motor activity test (about 4 hours and 40 minutes after the morning daily injection of nepicastat, and SKF-102698, and 10 minutes after a supplemental administration of clonidine and d-amphetamine on dosing day ten).

The test system of data set [3] is cardiovascular parameters. Put plainly: Cardiovascular effects of acute intravenous dosing in normal anesthetized dogs. Type of data set: in vivo. The following applies: 1-10 mg/kg i.v., up to five hours.

Structures are written as SMILES. “Also recorded” adds a separate entry of the source.

`Cl.NCc1c[nH]c(=S)n1[C@H]1CCc2c(F)cc(F)cc2C1` [nepicastat, (S)-5-Aminomethyl-1-(5,7-difluoro-1,2,3,4-tetrahydronaphth-2-yl)-2,3-dihydro-2-thioxo-1H-imidazole hydrochloride]: in data set [1] (5 mg/kg), the “maximal increase in DA/NE ratio, artery (renal)” value came to 95 fold; the “maximal increase in DA/NE ratio, cerebral cortex” value was determined as 80 fold; the “maximal increase in DA/NE ratio, left ventricle” value was found to be 151 fold. In data set [1] (5 mg/kg b.i.d. po), the “decrease in noradrenaline, cerebral cortex” value amounted to 96%; the “decrease in noradrenaline, left ventricle” value is reported as 91%; the “decrease in noradrenaline, renal artery” value is 88%; the “increase in dopamine, cerebral cortex” value worked out at 166%. Also, in data set [1] (5 mg/kg b.i.d. po), the “increase in dopamine, left ventricle” value is listed as 700% and the “increase in dopamine, renal artery” value is 627%. For the same molecule, the “doses at which catecholamine changes attained statistical significance (p<0.05)” value in data set [1] (renal artery, left ventricle, cerebral cortex) is over 0.1 mg/kg/day. Further, in the data set on β-adrenergic receptor, the “β-adrenergic receptor binding, treated vs vehicle left ventricular samples” value is listed as “no difference”. The “spontaneous motor (locomotor) activity vs vehicle” value in data set [2] (rat, in vivo, po) is reported as “no overall significant treatment effect”. Also, the “percent prepulse inhibition vs vehicle” value with pre-pulse inhibition (rat, in vivo, po) is “None of the nepicastat dose groups were significantly different”. Further, the cardiovascular effects entry in data set [3] is “no cardiovascular effects”.
For `Fc1cc(F)cc(Cn2cc[nH]c2=S)c1` [SKF 102698, reference compound], the “spontaneous motor (locomotor) activity vs vehicle” value in data set [2] (day ten of b.i.d. oral dosing, 1 hour) was “significantly lower locomotor activity than its vehicle control at the first 45 minutes”; in data set [2] (day ten of b.i.d. oral dosing, 1 hour, listed as SKF102698), “significantly reduced”. In addition, the “percent prepulse inhibition vs vehicle” value with pre-pulse inhibition (day ten of b.i.d. oral dosing) is reported as “marginally higher percent prepulse inhibition; also recorded: Neither d-amphetamine nor SKF 102698 was significantly different”.

The values are drawn from patent publication US20090054403A1, “Treatment of Post-Traumatic Stress Disorder” (priority 2007, published 2009).
